Laboratory results published in patent US8969389B2, “Substituted 6-methylnicotinamides as mGluR5 positive allosteric modulators” (Vanderbilt University, priority 2010, dated 2015).
pEC50: −log10 of the molar value.

Target: T1, rat mGluR5 (Rattus norvegicus, UniProt P31424)
T1 construct: expressed in transfected cells; host or cells: HEK (human embryonic kidney) cells
Assay: Potentiation of glutamate response in HEK cells transfected with rat mGluR5 (Ca2+ fluorescence, FDSS)
Type: cell-based
Settings: (R) and (S) enantiomers, Tables 3A/3B; read-out: mGluR5 EC50
Procedure: Human embryonic kidney (HEK) cells transfected with rat mGluR5 were plated in clear bottom assay plates for assay in a Functional Drug Screening System (FDSS). In the alternative assay, HEK cells transfected with human mGluR5 (H10H cell line) were plated for assay in the FDSS. […] The cells were loaded with a Ca^2+-sensitive fluorescent dye (e.g., Fluo-4), and the plates were washed and placed in the FDSS instrument. After establishment of a fluorescence baseline for twelve seconds, the compounds of the present invention were added to the cells, and the response in cells was measured. Five minutes later, an mGluR5 agonist (e.g., glutamate, 3,5-dihydroxyphenylglycine, or quisqualate) was added to the cells, and the response of the cells was measured. Potentiation of the agonist response of mGluR5 by the compounds in the present invention was observed as an increase in response to non-maximal concentrations of agonist (here, glutamate) in the presence of compound compared to the response to agonist in the absence of compound.
The above described assay operated in two modes. In the first mode, a range of concentrations of the present compounds were added to cells, followed by a single fixed concentration of agonist. If a compound acted as a potentiator, an EC50 value for potentiation and a maximum extent of potentiation by the compound at this concentration of agonist was determined by non-linear curve fitting. In the second mode, several fixed concentrations of the present compounds were added to various wells on a plate, followed by a range of concentrations of agonist for each concentration of present compound; the EC50 values for the agonist at each concentration of compound were determined by non-linear curve fitting. A decrease in the EC50 value of the agonist with increasing concentrations of the present compounds (a leftward shift of the agonist concentration-response curve) is an indication of the degree of mGluR5 potentiation at a given concentration of the present compound. An increase in the EC50 value of the agonist with increasing concentrations of the present compounds (a rightward shift of the agonist concentration-response curve) is an indication of the degree of mGluR5 antagonism at a given concentration of the present compound. The second mode also indicates whether the present compounds also affect the maximum response to mGluR5 to agonists.

T1 sequence (P31424 21-1203): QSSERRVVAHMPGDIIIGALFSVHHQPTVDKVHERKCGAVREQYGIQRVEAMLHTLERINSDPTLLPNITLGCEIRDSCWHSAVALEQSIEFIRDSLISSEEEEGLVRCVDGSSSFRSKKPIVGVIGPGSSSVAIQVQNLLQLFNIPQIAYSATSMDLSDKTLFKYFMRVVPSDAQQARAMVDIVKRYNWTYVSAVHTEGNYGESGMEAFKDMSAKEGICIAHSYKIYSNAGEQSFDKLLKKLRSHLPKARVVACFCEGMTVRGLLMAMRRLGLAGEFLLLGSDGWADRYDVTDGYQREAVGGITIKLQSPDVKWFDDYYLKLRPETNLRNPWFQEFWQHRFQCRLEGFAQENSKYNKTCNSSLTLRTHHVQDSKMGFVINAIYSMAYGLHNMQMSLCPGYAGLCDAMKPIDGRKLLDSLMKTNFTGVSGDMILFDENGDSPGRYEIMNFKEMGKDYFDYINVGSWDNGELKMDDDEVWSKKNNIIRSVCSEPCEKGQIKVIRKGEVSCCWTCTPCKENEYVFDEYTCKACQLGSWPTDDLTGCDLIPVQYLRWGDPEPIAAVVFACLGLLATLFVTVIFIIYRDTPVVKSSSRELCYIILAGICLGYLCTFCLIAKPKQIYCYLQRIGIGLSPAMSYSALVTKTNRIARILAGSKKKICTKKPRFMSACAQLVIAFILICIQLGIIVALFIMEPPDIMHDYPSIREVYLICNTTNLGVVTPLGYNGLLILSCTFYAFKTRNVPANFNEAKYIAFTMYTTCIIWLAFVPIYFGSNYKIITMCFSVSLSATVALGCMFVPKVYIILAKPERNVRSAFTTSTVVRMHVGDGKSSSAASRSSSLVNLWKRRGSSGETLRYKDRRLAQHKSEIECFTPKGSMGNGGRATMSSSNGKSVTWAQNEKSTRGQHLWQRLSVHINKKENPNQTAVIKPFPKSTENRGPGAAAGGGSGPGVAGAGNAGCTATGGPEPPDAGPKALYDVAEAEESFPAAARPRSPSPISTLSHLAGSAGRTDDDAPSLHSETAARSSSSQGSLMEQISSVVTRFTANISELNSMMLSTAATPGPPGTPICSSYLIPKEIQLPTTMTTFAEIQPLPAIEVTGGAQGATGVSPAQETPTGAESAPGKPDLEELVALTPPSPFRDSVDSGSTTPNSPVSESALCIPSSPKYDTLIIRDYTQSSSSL

| pEC50 | SMILES |
| --- | --- |
| < 5.00 | C[C@H](NC(=O)c1ccc(COc2cccc(F)c2)nc1)C(C)(C)C [Example 13b, (S)-N-(3,3-dimethylbutan-2-yl)-6-((3-fluorophenoxy)methyl)nicotinamide] |
| 6.51 | C[C@@H](NC(=O)c1ccc(COc2cc(F)cc(F)c2)nc1)C1CCCCC1 [Example 12a, (R)-N-(1-cyclohexylethyl)-6-((3,5-difluorophenoxy)methyl)nicotinamide] |
| < 5.00 | C[C@H](NC(=O)c1ccc(COc2cc(F)cc(F)c2)nc1)C1CCCCC1 [Example 12b, (S)-N-(1-cyclohexylethyl)-6-((3,5-difluorophenoxy)methyl)nicotinamide] |

Same assay, conditions: HEK cells transfected with rat mGluR5; read-out: rmGlu5 PAM EC50

| SMILES | pEC50 |
| --- | --- |
| C[C@@H](NC(=O)c1ccc(COc2cccc(F)c2)nc1)C1CCOCC1 | 5.49 |
| CC(C)NC(=O)c1ccc(COc2cc(F)cc(F)c2)nc1 | < 5.00 |
| CC(C)NC(=O)c1ccc(COc2cccc(F)c2)nc1 | < 5.00 |
| O=C(Nc1ccccn1)c1ccc(COc2ccccc2)nc1 | 5.28 |
| O=C(NCCCN1CCOCC1)c1ccc(COc2ccccc2)nc1 | < 5.00 |
| O=C(NCCc1ccc(Cl)cc1)c1ccc(COc2ccccc2)nc1 | < 5.00 |
| O=C(Nc1cc(F)cc(F)c1)c1ccc(COc2ccccc2)nc1 | < 5.00 |
| N#Cc1cc(F)cc(OCc2ccc(C(=O)NC3CCC3)cn2)c1 | < 5.00 |
| COCC(C)NC(=O)c1ccc(COc2cccc(F)c2)nc1 (centres unmarked) | < 5.00 |
| O=C(Nc1cccc(C(F)(F)F)c1)c1ccc(COc2ccccc2)nc1 | < 5.00 |
| O=C(NCCN1CCCCC1)c1ccc(COc2ccccc2)nc1 | < 5.00 |
| C[C@@H](NC(=O)c1ccc(COc2ccccc2C#N)nc1)C1CCCCC1 | < 5.00 |
| C[C@@H](NC(=O)c1ccc(COc2ccccn2)nc1)C1CCCCC1 | < 5.00 |
| O=C(Nc1nccs1)c1ccc(COc2cc(F)cc(F)c2)nc1 | < 5.00 |
| O=C(NC1CCc2ccccc21)c1ccc(COc2ccccc2)nc1 (centres unmarked) [drawing 138] | < 5.00 |
| CC(C)NC(=O)c1ccc(COc2cc(F)cc(C#N)c2)nc1 | < 5.00 |
| C[C@@H](NC(=O)c1ccc(COc2cc(F)cc(C#N)c2)nc1)C1CCCCC1 | < 5.00 |
| C[C@@H](NC(=O)c1ccc(COc2cccnc2)nc1)C1CCCCC1 [drawing 109] | 5.31 |
| O=C(NCCN1CCOCC1)c1ccc(COc2ccccc2)nc1 | < 5.00 |
| N#Cc1cc(F)cc(OCc2ccc(C(=O)NC3(c4ccccc4)CCC3)cn2)c1 | < 5.00 |
| O=C(Nc1ccncc1)c1ccc(COc2ccccc2)nc1 | < 5.00 |

Next, values leading:

| pEC50 | SMILES |
| --- | --- |
| 6.35 | O=C(NC1CCCCC1)c1ccc(COc2cccc(F)c2)nc1 |
| 6.76 | C[C@@H](NC(=O)c1ccc(COc2cccc(F)c2)nc1)C1CCCCC1 [drawing 74] |
| 7.12 | O=C(NC1CC2CCC1C2)c1ccc(COc2cccc(F)c2)nc1 (centres unmarked) |
| 6.73 | CC(NC(=O)c1ccc(COc2ccccc2)nc1)C1CCCCC1 (centres unmarked) |
| 6.82 | O=C(NC1CC2CCC1C2)c1ccc(COc2ccccc2)nc1 (centres unmarked) [drawing 70] |
| 6.92 | O=C(NC1CC2CCC1C2)c1ccc(COc2ccccc2)nc1 (centres unmarked) [drawing 66] |
| 6.51 | C[C@@H](NC(=O)c1ccc(COc2cc(F)cc(F)c2)nc1)C1CCCCC1 [drawing 81] |
| 6.44 | C[C@@H](NC(=O)c1ccc(COc2ccc(F)cc2)nc1)C1CCCCC1 |
| 5.59 | C[C@@H](NC(=O)c1ccc(COc2ccncc2)nc1)C1CCCCC1 |
| 5.97 | C[C@@H](NC(=O)c1ccc(COc2cccc(F)c2)nc1)C1CC1 |
| 6.80 | C[C@@H](NC(=O)c1ccc(COc2ccccc2F)nc1)C1CCCCC1 |
| 6.02 | CC(C)CCNC(=O)c1ccc(COc2ccccc2)nc1 |
| 5.60 | C[C@@H](NC(=O)c1ccc(COc2ccc(C#N)cc2)nc1)C1CCCCC1 |
| 5.80 | CC(C)(C)CCNC(=O)c1ccc(COc2cc(F)cc(F)c2)nc1 |
| 6.22 | O=C(NC12CC3CC(CC(C3)C1)C2)c1ccc(COc2ccccc2)nc1 |
| 6.89 | C[C@@H](NC(=O)c1ccc(COc2cccc(F)c2)nc1)C1CCCCC1 [drawing 67] |
| 5.72 | O=C(NC(C1CC1)C(F)(F)F)c1ccc(COc2cccc(F)c2)nc1 (centres unmarked) |
